For orientation: Vdss means the apparent volume that relates the amount in the body to the concentration in plasma or blood. In general, Cmax refers to the highest concentration seen after dosing. For orientation: Tmax means the time at which the peak concentration occurs. What is called ED50 is the dose at which the effect has come halfway, by size or by number of responders. The term logD denotes the decadic logarithm of the distribution of all forms, ionised or not, between an organic phase and buffer at a given pH. Lower therefore signals lower lipophilicity. A word on the IC50: it is the concentration needed to halve the response being measured. As a reminder, the solubility is the dissolved amount per volume that the medium holds. One may read the MIC as the smallest concentration in the dilution series that meets the test's criterion for growth inhibition. By inhibition in vivo is commonly meant the change of the read-out against control, counted positive when it falls.

The source of these data is article PMC7722354, “7-Substituted 2-Nitro-5,6-dihydroimidazo[2,1-b][1,3]oxazines: Novel Antitubercular Agents Lead to a New Preclinical Candidate for Visceral Leishmaniasis” (Journal of Medicinal Chemistry, 2017).

≈ marks a conversion by molar mass, not a printed value. Where two headings read alike, the source gives them in different places. Marks after values point to notes of the source that are not given here.

Details of series [1]: method as in PMID 26901446. The settings on record: mice, cited from earlier work.
For series [2], the system named is L. donovani. Further details: method as in PMID 26901446. The settings on record: cited from earlier work.
Series [3] relates to Caco-2. The following applies: cited from earlier work.
Series [4] is described as follows: physchem.
Series [5] concerns Leishmania donovani. Further details: method as in PMID 26901446. The settings on record: in mouse macrophages; cited from earlier work.
Series [6] concerns human lung fibroblasts (MRC-5 cells). On the set-up: method as in PMID 26901446. The following applies: cytotoxicity; cited from earlier work.
Series [7] has as its system Salmonella strains (TA98 and TA100).
Excerpt: Ames Test. […] Two Salmonella strains (TA98 and TA100) were employed, both in the presence and absence of metabolic activation (rat liver S9). Positive controls (2-aminoanthracene, 2-nitrofluorene, and sodium azide) and a negative (DMSO solvent) control were included.
For series [8], the system named is Leishmania infantum. The series is described as follows: L. inf growth inhibition in mouse macrophages (LMPH). The settings on record: Macrophage, mean of at least two determinations. Format: cell-based.
Series [9] can be described thus: mouse pharmacokinetics. The class given is in vivo. The following applies: mice, oral 40 mg/kg.
In series [10] the test system is human lung fibroblasts (MRC-5 cells). The experiment in a line: cytotoxicity toward MRC-5 cells (LMPH). The class given is cell-based. The settings on record: MRC5.
In series [11] the test system is Trypanosoma cruzi. The series is described as follows: T. cruzi growth inhibition on MRC-5 cells (LMPH). The settings on record: MRC5. Format: cell-based.
Series [12] is described as follows: kinetic aqueous solubility (Method A). Format: physicochemical.
For series [13], the system named is M. tb, strain H37Rv. The experiment in a line: MABA minimum inhibitory concentration assay (aerobic). The class given is cell-based, Mycobacterium tuberculosis.
The subject of series [14] is M. tb, strain H37Rv. The series is described as follows: LORA minimum inhibitory concentration assay (hypoxic). The settings on record: Mycobacterium tuberculosis. The class given is cell-based.
For series [15], the system named is L. donovani. The series is described as follows: acute VL infection assay (L. don mouse model, LSHTM). The following applies: Leishmania donovani, po, 120 h; 50 mg/kg orally once daily 5 days; liver parasite burden; read-out: in vivo efficacy against L. don (mouse), % inhibition.
The subject of series [16] is Leishmania donovani. The series is described as follows: L. don amastigote mouse macrophage-based luciferase assay (CDRI). The class given is cell-based. The following applies: in mouse macrophages, single test (CDRI).
Series [17] has as its system L. donovani. The following applies: L. don hamster model, 50 mg/kg, 5 days oral dosing.
Description: Groups of hamsters having an appropriate infection grading (5–15 amastigotes/100 spleen cell nuclei) were treated with test compounds, starting on day 17 and dosing orally once per day for 5 days, according to the usual procedure.[10] Post-treatment splenic biopsies taken 12 days after the first dose were employed to determine the intensity of infection, as previously reported.[10]
The mark [18] stands for this setting: water, pH 7, kinetic, water (pH 7), 20 °C, read-out: aq solubility pH 7.
The mark [19] stands for this setting: Mycobacterium tuberculosis, H37RV, aerobic, read-out: MIC MABA.

On to `CC1(COc2ccc(OC(F)(F)F)cc2)Cn2cc([N+](=O)[O-])nc2O1` (racemic) [rac-4], for which, in series [1] (intravenous 1 mg/kg), the AUClast is reported as 1.69 μg·;h/mL, the C0 is 880 ng/mL, the CL is 9.5 mL/min/kg and the Vdss is listed as 1.7 L/kg. In series [1] (intravenous 1 mg/kg), the t1/2 is 2.2 h. Besides, in series [1] (oral 25 mg/kg), the AUClast is given as 33.5 μ·h/mL, the Cmax is 4100 ng/mL, the “F (oral bioavailability)” value is recorded as 79% and the Tmax is 4.0 h. For the same molecule, the “% inhibition, L. don mouse model” value in [2] (6.25 mg/kg po daily for 5 d) is reported as 99%. For the same molecule, the ED50 in [2] (L. don mouse model) is listed as 3.0 mg/kg.
`C[C@]1(COc2ccc(OC(F)(F)F)cc2)Cn2cc([N+](=O)[O-])nc2O1` [compound 4]: in series [3], the “permeability Papp A to B” value was 22.6 × 10^–6 cm/s and the “permeability Papp B to A” value is 24.7 × 10^–6 cm/s. Further, in [4], the logD stood at 3.1. In [5], the IC50 was 0.03 µM. Besides, the IC50 in series [6] was above 64 µM. In addition, the “mutagenic effect (Ames test)” value in series [7] is recorded as “no”.
As for `O=[N+]([O-])c1cn2c(n1)OC(COCc1ccc(-c3ccc(OC(F)(F)F)cc3)cc1)CC2` (stereo not shown) [compound 28], the IC50 in series [8] was 0.4 µM; in series [10], above 64 µM; in series [11], 2.1 µM; in series [16], 0.19 µM. Besides, the “AUCinf (extrapolated)” value in series [9] was 47.1^e μ·h/mL. In [9], this molecule registered a Cmax of 3300 ng/mL. In series [9], the Tmax was found to be 8.0 h. In series [9], this molecule came in with a t1/2 of 5.2 h. In addition, the solubility at 15 min in series [12] (water, pH 7, kinetic, pH 7, read-out: solubility at pH 7) is around 0.058 µg/mL (≈ 0.129 µM); in series [12] (setting [18]), 0.058 µg/mL (≈ 0.129 µM). In addition, the values for the MIC in [13] (setting [19]) and in [14] were 0.055 µM (≈ 0.0247 µg/mL) and 1.5 µM (≈ 0.674 µg/mL), respectively. In series [15], the inhibition in vivo at 50 mg/kg turned out to be 49%.
In the case of `O=[N+]([O-])c1cn2c(n1)OC(COc1ccc(-c3ccc(F)cc3)cc1)CC2` (stereo not shown) [compound 49], the MIC in series [13] (Mycobacterium tuberculosis, H37RV, read-out: MIC MABA, aerobic) was 0.18 µM (≈ 0.0665 µg/mL); in [14], above 128 µM. In series [16], the IC50 was 0.01 µM. The “% inhibition of parasite infection in the spleen” value in series [17] worked out at 51%.
With `O=[N+]([O-])c1cn2c(n1)OC(COc1cccc(-c3ccc(F)cc3)n1)CC2` (stereo not shown) [compound 99], the IC50 came to 0.14 µM in series [8], 59 µM in series [10], 0.16 µM in series [11] and 0.31 µM in [16]. For the same molecule, the solubility at 15 min in [12] (0.1 M HCl, pH 1, kinetic, 0.1 M HCl (pH 1), 20 °C, read-out: aq solubility pH 1) was found to be 0.56 µg/mL (≈ 1.51 µM); in series [12] (setting [18]), 0.027 µg/mL (≈ 0.0729 µM). Also, the MIC in [13] (setting [19]) is 1.7 µM (≈ 0.63 µg/mL); in series [14], 3 µM (≈ 1.11 µg/mL).
Turning to `O=[N+]([O-])c1cn2c(n1)OC(COc1ncc(-c3ccc(F)cc3)cn1)CC2` (stereo not shown) [compound 129], the IC50 is 0.29 µM in [8], above 64 µM in series [10], 0.17 µM in series [11] and 0.1 µM in [16]. In [12] (setting [18]), the solubility at 15 min was 1.8 µg/mL (≈ 4.85 µM). For the same molecule, the MIC was 0.02 to 0.04 µM (≈ 0.00743 to 0.0149 µg/mL) in [13] (setting [19]); 0.04 µM (≈ 0.0149 µg/mL) in [13] (aerobic, read-out: MIC MABA); 1.7 µM (≈ 0.631 µg/mL) in series [14]. For the same molecule, the inhibition in vivo at 50 mg/kg in [15] is 85%.
Turning to `O=[N+]([O-])c1cn2c(n1)OC(COc1cnc(-c3ccc(F)cc3)nc1)CC2` (stereo not shown) [compound 139], the concentration for half-maximal inhibition (IC50) in series [8] was 0.21 µM; in series [10], 62 µM; in series [11], 0.26 µM; in series [16], 0.07 µM. Moreover, the solubility at 15 min in series [12] (setting [18]) came out at 0.59 µg/mL (≈ 1.59 µM). For the same molecule, the values for the MIC in [13] (setting [19]) and in [14] were 0.27 µM (≈ 0.1 µg/mL) and 20 µM (≈ 7.43 µg/mL), respectively.
